Experiments:
Details in all cases: stereoisomer not certain
[1] = RP, 100 × 0.5 mm, 2.7 µm, 45 °C, 0.015 mL/min, estimated dead time 0.83 min; A: water + 0.9% formic acid; B: acetonitrile + 0.9% formic acid; gradient (min/%B) 0/1 0.5/1 4/95 4.5/1 5/1
[2] = RP, 50 × 0.5 mm, 2.7 µm, 35 °C, 0.01 mL/min, estimated dead time 0.62 min; A: water + 0.1% formic acid, pH 3; B: acetonitrile + 0.1% formic acid, pH 3; gradient (min/%B) 0/5 12/95 14/95 16/5
[3] = RP, 150 × 2.1 mm, 2.6 µm, 40 °C, 0.35 mL/min, estimated dead time 0.94 min; A: water + 0.1% formic acid, pH 3; B: acetonitrile + 0.1% formic acid, pH 3; gradient (min/%B) 0/0 1/0 12.5/100 14/100 14.2/0 15/0
[4] = RP, 150 × 2.1 mm, 2.6 µm, 40 °C, 0.35 mL/min, estimated dead time 0.94 min; A: water + 0.1% formic acid, pH 3; B: acetonitrile + 0.1% formic acid, pH 3; gradient (min/%B) 0/0 1/5 7/45 8.5/80 10.5/80 11/5 12/5
[5] = RP, Phenomenex Synergi Hydro-RP, 150 × 2 mm, 4 µm, 30 °C, 0.5 mL/min, estimated dead time 0.6 min; A: water + 0.1% formic acid, pH 3; B: acetonitrile + 0.1% formic acid, pH 3; gradient (min/%B) 0/5 1/5 35/45 40/100 45/100
[6] = RP, Phenomenex Luna Omega Polar C18, 100 × 2.1 mm, 1.6 µm, 40 °C, 0.5 mL/min, estimated dead time 0.44 min; A: water + 0.5% formic acid; B: acetonitrile + 0.5% formic acid; gradient (min/%B) 0/5 3/50 3.1/100 5/100 5.1/5 7/5
[7] = RP, Phenomenex Luna C18, 150 × 4.6 mm, 3 µm, 25 °C, 0.5 mL/min, estimated dead time 3.2 min; A: water + 0.1% formic acid, pH 3; B: acetonitrile + 0.1% formic acid, pH 3; gradient (min/%B) 0/0 30/30 35/40 50/80 52/80 60/0 65/0
[8] = RP, Phenomenex Luna Omega Polar C18, 100 × 2.1 mm, 1.6 µm, 40 °C, 0.5 mL/min, estimated dead time 0.44 min; A: water + 0.1% formic acid + 10 mM ammonium formate; B: acetonitrile; gradient (min/%B) 0/5 8/20 10/100 12/100 12.1/5 14/5
[9] = RP, Waters ACQUITY UPLC HSS T3, 100 × 2.1 mm, 1.8 µm, 30 °C, 0.4 mL/min, estimated dead time 0.55 min; A: water + 0.1% formic acid, pH 3; B: acetonitrile + 0.1% formic acid, pH 3; gradient (min/%B) 0/0 2/0 15/100 22/100 22.1/0 26/0
[10] = RP, Agilent ZORBAX Eclipse XDB-C18, 100 × 2.1 mm, 1.8 µm, 50 °C, 0.4 mL/min, estimated dead time 0.55 min; A: water + 0.1% formic acid, pH 3; B: methanol + 0.1% formic acid, pH 3; gradient (min/%B) 0/2 10/100 14.5/100 14.51/2 16.5/2
[11] = RP, Waters ACQUITY UPLC BEH Shield RP18, 100 × 2.1 mm, 1.7 µm, 30 °C, 0.6 mL/min, estimated dead time 0.37 min; A: water + 0.1% formic acid, pH 3; B: acetonitrile + 0.1% formic acid, pH 3; gradient (min/%B) 0/0 2/0 7/10 22/95 22.1/0 26/0
[12] = RP, Waters ACQUITY UPLC BEH Shield RP18, 150 × 2.1 mm, 1.7 µm, 40 °C, 0.4 mL/min, estimated dead time 0.83 min; A: water + 0.1% formic acid, pH 3; B: acetonitrile + 0.1% formic acid, pH 3; gradient (min/%B) 0/0 30/50 31/100 37/100 37.1/0
[13] = RP, Agilent InfinityLab Poroshell 120 EC-C18, 100 × 3 mm, 2.7 µm, 25 °C, 0.4 mL/min, estimated dead time 1.1 min; A: water + 0.1% formic acid, pH 3; B: acetonitrile + 0.1% formic acid, pH 3; gradient (min/%B) 0/5 10/25 20/40 24/90 25/90 26/5 30/5
[14] = RP, Waters Atlantis T3, 100 × 2.1 mm, 3 µm, 40 °C, 0.3 mL/min, estimated dead time 0.73 min; A: water + 0.1% trifluoroacetic acid, pH 2; B: acetonitrile + 0.1% trifluoroacetic acid, pH 2; gradient (min/%B) 0/10 1/10 6/40 7/50 8/50 14/70 16/80 20/10 25/10
[15] = Other, Phenomenex Kinetex PFP, 100 × 4.6 mm, 5 µm, 45 °C, 0.6 mL/min, estimated dead time 1.8 min; A: water + 0.1% trifluoroacetic acid, pH 2; B: methanol; gradient (min/%B) 0/40 20/72 21/40
[16] = RP, Waters ACQUITY UPLC BEH C18, 100 × 2.1 mm, 1.7 µm, 65 °C, 0.4 mL/min, estimated dead time 0.55 min; A: water + 0.1% formic acid, pH 3; B: 80% acetonitrile + 20% acetone + 0.1% formic acid, pH 3; gradient (min/%B) 0/0 5/100 5.5/0 6/0
[17] = RP, Agilent ZORBAX RRHD Eclipse Plus C18, 50 × 2.1 mm, 1.8 µm, 30 °C, 0.4 mL/min, estimated dead time 0.28 min; A: water + 0.1% formic acid, pH 3; B: acetonitrile + 0.1% formic acid, pH 3; gradient (min/%B) 0/1 5/10 8/25 9.1/99 10/99 12/99
[18] = RP, Phenomenex Synergi Hydro-RP, 250 × 2 mm, 4 µm, 25 °C, 0.2 mL/min, estimated dead time 2.5 min; A: water + 0.1% formic acid, pH 3; B: acetonitrile + 0.1% formic acid, pH 3; gradient (min/%B) 0/0.5 7/0.5 12/12.5 25/16.3 47/35 48/65 50/65 50.1/0.5
[19] = RP, Merck LiChrospher RP-18, 250 × 4 mm, 5 µm, 35 °C, 0.3 mL/min, estimated dead time 6.7 min; A: water + 0.5% formic acid; B: acetonitrile + 0.5% formic acid; gradient (min/%B) 0/5 10/5 30/15 45/20 65/20 95/54 110/63 115/5 135/5
[20] = RP, Agilent ZORBAX RRHD Eclipse Plus C18, 50 × 2.1 mm, 1.8 µm, 30 °C, 0.4 mL/min, estimated dead time 0.28 min; A: water + 0.1% formic acid, pH 3; B: acetonitrile + 0.1% formic acid, pH 3; gradient (min/%B) 0/1 5/10 8/25 9.1/99 10/99 12/1
[21] = RP, Phenomenex Kinetex EVO C18, 100 × 2.1 mm, 2.6 µm, 40 °C, 0.4 mL/min, estimated dead time 0.55 min; A: water + 0.2% formic acid; B: acetonitrile + 0.2% formic acid; gradient (min/%B) 0/5 0.5/5 7/95 8/95 8.5/5 12/5

Compound	LC retention time [1] [min]	LC retention time [2] [min]	LC retention time [3] [min]	LC retention time [4] [min]	LC retention time [5] [min]	LC retention time [6] [min]	LC retention time [7] [min]	LC retention time [8] [min]	LC retention time [9] [min]	LC retention time [10] [min]	LC retention time [11] [min]	LC retention time [12] [min]	LC retention time [13] [min]	LC retention time [14] [min]	LC retention time [15] [min]	LC retention time [16] [min]	LC retention time [17] [min]	LC retention time [20] [min]	further results
O=c1c(-c2ccc(O)cc2)coc2cc(O)cc(O)c12 [Genistein]	3.17	6.06	7.65	8.03	25.7	3.49	41.5	9.62	11.5	6.56	16.1	22.9	16.5	–	18	2.84	–	–	–
COc1ccc(C2CC(=O)c3c(O)cc(O)cc3O2)cc1O (stereo unspecified) [Hesperetin]	3.27	6.17	7.8	8.21	26.6	3.57	42.5	9.67	11.7	6.64	15.5	21.2	17.4	10.4	–	2.93	9.29	–	LC retention time [18]: 51.9 min
COc1cc(-c2oc3cc(O)cc(O)c3c(=O)c2O)ccc1O [Isorhamnetin]	3.24	4.51	–	–	27.4	3.7	42.5	9.84	11.7	7.05	16.4	24	17.6	–	–	–	9.29	9.19	LC retention time [19]: 98.9 min
O=C(CCc1ccc(O)cc1)c1c(O)cc(O)cc1O [Phloretin]	3.13	6	7.51	7.9	25.8	–	41.2	9.58	11.4	6.47	15.6	21.3	16.7	10	–	2.85	9.3	9.14	LC retention time [19]: 94.8 min; LC retention time [18]: 50.6 min
O=c1c(OS(=O)(=O)O)c(-c2ccc(O)c(O)c2)oc2cc(O)cc(O)c12 [Quercetin 3-O-sulfate]	2.82	–	–	–	20.2	2.93	46.2	9.25	10.5	5.84	19.4	25.5	12.6	–	14.7	–	8.12	7.73	LC retention time [21]: 6.76 min
O=c1c(O)c(-c2ccc(OS(=O)(=O)O)c(O)c2)oc2cc(O)cc(O)c12 [Quercetin 4-O-sulfate]	2.82	–	–	–	20.7	2.93	47.6	9.3	10.6	–	19.5	–	12.9	–	14.9	–	–	–	–

Continued, in another order:

LC retention time [1] [min]	LC retention time [2] [min]	LC retention time [3] [min]	LC retention time [4] [min]	LC retention time [5] [min]	LC retention time [6] [min]	LC retention time [7] [min]	LC retention time [8] [min]	LC retention time [9] [min]	LC retention time [10] [min]	LC retention time [11] [min]	LC retention time [12] [min]	LC retention time [13] [min]	LC retention time [14] [min]	LC retention time [15] [min]	LC retention time [16] [min]	LC retention time [17] [min]	LC retention time [20] [min]	Compound	further results
2.89	4.87	6.07	6.23	17.9	2.6	27.6	9.12	9.6	5.5	13.5	14.3	10.7	7.96	–	–	–	–	O=c1cc(-c2ccc(O)cc2)oc2cc(OC3OC(CO)C(O)C(O)C3O)cc(O)c12 (stereo unspecified) [Apigenin 7-O-glucoside]	–
2.56	4.65	–	–	17.3	–	26.7	8.96	9.46	5.22	13	13	10.6	7.79	9.02	–	–	–	CC1OC(OC2C(Oc3cc(O)c4c(c3)OC(c3ccc(O)cc3)CC4=O)OC(CO)C(O)C2O)C(O)C(O)C1O (stereo unspecified) [Naringin]	–
2.44	4.6	–	–	15.8	2.49	23	8.28	9.05	4.86	12.6	12	10.2	7.34	–	–	–	–	CC1OC(OC2C(O)C(OCCc3ccc(O)c(O)c3)OC(CO)C2OC(=O)C=Cc2ccc(O)c(O)c2)C(O)C(O)C1O (stereo unspecified) [Verbascoside]	LC retention time [21]: 4.84 min
